Data: US20200239530A1, “COMPOUNDS AND METHODS OF MODULATING PROTEIN DEGRADATION” (Vividion Therapeutics, Inc., priority 2017, published 2020)
Each block holds one compound with its values, some of them ahead of it.

Legend:
Assay in all cases: Competitive cysteine profiling of cell lysate with desthiobiotin iodoacetamide probe (96-well sample prep)
Assay type in all cases: binding
[1] = molecular target: T1, cysteine residue illustrated in Table 1A or Table 2A (Homo sapiens, UniProt P41002); details: UniProt P41002; 100 uM
T1 construct: Cells were resuspended in cold PBS on ice and sonicated with a probe sonicator to achieve lysis; endogenous in cells
Method in brief: (§1)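 Sonicated cell lysate (5 mg/ml proteome) was preincubated with compound 1 h at 25 °C, then labelled with desthiobiotin iodoacetamide probe 1 h at 25 °C. After reduction, alkylation and trypsin digestion, probe-labelled peptides were streptavidin-enriched and eluted for mass-spectrometric analysis.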

[2] = molecular target: T2, cysteine residue illustrated in Table 1A or Table 2A (Homo sapiens, UniProt P55774); details: UniProt P55774
T2 construct: Cells were resuspended in cold PBS on ice and sonicated with a probe sonicator to achieve lysis; endogenous in cells
T2 sequence (P55774 21-89): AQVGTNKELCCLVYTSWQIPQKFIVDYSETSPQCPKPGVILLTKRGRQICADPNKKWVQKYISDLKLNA
Method in brief: as §1

[3] = molecular target: T3, cysteine residue illustrated in Table 1A or Table 2A (Homo sapiens, UniProt Q86Y01); details: UniProt Q86Y01; 100 uM
T3 construct: Cells were resuspended in cold PBS on ice and sonicated with a probe sonicator to achieve lysis; endogenous in cells
T3 sequence (Q86Y01 whole entry): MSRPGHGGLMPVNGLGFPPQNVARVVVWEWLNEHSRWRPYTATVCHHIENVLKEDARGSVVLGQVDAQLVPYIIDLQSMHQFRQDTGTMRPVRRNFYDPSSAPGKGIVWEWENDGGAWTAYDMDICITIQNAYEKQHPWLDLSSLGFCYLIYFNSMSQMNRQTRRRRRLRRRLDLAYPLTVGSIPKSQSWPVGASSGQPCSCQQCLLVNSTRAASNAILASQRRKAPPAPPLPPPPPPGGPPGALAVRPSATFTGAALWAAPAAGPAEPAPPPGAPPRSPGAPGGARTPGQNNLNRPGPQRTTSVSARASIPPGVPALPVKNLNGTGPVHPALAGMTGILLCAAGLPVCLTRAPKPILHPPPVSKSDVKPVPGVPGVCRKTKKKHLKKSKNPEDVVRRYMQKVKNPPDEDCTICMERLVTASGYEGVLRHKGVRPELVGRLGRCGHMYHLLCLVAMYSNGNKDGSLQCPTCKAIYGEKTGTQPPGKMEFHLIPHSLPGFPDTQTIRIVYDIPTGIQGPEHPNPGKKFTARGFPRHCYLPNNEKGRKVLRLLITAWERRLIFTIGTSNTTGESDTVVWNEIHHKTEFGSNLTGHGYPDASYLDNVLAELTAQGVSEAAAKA
Method in brief: as §1

[4] = molecular target: T4, cysteine residue illustrated in Table 1A or Table 2A (Homo sapiens, UniProt Q7Z6J8); details: UniProt Q7Z6J8; KB05 100 uM
T4 construct: Cells were resuspended in cold PBS on ice and sonicated with a probe sonicator to achieve lysis; endogenous in cells
T4 sequence (Q7Z6J8 whole entry): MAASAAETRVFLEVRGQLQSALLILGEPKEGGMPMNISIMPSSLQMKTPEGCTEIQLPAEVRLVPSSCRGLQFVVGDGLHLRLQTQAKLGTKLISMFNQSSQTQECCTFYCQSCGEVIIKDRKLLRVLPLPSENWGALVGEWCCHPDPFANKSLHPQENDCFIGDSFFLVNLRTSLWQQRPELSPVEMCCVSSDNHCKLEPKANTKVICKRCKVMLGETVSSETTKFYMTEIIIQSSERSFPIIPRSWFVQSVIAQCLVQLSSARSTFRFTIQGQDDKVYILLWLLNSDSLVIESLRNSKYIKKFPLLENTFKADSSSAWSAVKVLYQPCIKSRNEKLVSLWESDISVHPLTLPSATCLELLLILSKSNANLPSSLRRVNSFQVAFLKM
Method in brief: as §1

[5] = molecular target: T5, cysteine residue illustrated in Table 1A or Table 2A (Homo sapiens, UniProt P49754); details: UniProt P49754; KB05 100 uM
T5 construct: Cells were resuspended in cold PBS on ice and sonicated with a probe sonicator to achieve lysis; endogenous in cells
Method in brief: as §1

[6] = molecular target: T6, cysteine residue illustrated in Table 1A or Table 2A (Homo sapiens, UniProt Q6ZT12); details: UniProt Q6ZT12; KB05 100 uM
T6 construct: Cells were resuspended in cold PBS on ice and sonicated with a probe sonicator to achieve lysis; endogenous in cells
T6 sequence (Q6ZT12 whole entry): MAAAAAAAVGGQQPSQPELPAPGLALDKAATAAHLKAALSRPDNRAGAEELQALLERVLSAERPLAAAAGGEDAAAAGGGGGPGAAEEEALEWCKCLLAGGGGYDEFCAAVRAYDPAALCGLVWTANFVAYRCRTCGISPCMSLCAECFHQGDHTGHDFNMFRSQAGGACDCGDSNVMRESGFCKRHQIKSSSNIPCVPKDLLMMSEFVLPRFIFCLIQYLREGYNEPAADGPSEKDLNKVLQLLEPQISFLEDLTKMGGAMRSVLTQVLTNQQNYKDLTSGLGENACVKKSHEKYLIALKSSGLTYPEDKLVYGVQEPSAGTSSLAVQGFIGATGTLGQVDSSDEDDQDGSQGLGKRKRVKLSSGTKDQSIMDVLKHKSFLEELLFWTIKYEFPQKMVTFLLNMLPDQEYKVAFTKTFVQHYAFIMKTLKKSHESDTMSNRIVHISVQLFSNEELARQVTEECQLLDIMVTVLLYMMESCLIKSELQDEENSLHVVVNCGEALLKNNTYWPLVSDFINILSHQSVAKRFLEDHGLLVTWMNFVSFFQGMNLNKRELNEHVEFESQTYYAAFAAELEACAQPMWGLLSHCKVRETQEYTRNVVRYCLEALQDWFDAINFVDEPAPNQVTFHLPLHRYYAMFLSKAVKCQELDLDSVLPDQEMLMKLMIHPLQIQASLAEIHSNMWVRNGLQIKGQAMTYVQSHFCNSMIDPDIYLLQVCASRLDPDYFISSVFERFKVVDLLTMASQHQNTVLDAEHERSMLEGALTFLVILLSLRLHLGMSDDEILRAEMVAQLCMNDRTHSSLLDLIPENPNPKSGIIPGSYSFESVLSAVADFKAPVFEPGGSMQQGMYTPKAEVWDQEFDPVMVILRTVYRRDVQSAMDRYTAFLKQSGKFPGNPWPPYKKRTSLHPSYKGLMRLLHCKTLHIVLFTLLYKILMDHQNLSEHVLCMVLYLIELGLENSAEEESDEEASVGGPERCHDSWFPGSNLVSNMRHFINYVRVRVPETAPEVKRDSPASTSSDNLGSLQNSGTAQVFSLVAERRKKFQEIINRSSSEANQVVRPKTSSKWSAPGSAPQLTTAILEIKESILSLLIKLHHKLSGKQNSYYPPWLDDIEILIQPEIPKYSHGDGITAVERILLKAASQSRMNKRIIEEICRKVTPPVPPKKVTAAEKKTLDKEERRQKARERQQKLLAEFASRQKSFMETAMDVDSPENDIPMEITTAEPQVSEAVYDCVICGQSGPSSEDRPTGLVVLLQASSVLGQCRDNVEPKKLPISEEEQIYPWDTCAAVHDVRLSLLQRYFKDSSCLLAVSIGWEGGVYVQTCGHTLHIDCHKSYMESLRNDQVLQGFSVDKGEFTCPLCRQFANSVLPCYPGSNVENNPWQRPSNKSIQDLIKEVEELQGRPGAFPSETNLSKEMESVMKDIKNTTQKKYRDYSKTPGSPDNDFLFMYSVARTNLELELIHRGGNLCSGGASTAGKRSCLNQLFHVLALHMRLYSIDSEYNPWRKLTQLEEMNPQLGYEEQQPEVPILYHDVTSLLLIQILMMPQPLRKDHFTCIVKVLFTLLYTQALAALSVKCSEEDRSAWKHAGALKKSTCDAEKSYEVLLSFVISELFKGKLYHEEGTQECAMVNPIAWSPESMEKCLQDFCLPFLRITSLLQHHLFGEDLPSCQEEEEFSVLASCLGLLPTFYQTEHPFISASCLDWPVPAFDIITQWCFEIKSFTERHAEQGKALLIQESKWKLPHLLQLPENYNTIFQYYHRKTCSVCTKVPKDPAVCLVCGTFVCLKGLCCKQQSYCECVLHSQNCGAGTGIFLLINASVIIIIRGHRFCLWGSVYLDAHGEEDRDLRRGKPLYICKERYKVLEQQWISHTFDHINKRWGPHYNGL
Method in brief: as §1

[7] = molecular target: T7, cysteine residue illustrated in Table 1A or Table 2A (Homo sapiens, UniProt Q9Y6I7); details: UniProt Q9Y6I7; KB02 100 uM
T7 construct: Cells were resuspended in cold PBS on ice and sonicated with a probe sonicator to achieve lysis; endogenous in cells
Method in brief: as §1

[8] = molecular target: T8, cysteine residue illustrated in Table 1A or Table 2A (Homo sapiens, UniProt O95159); details: UniProt O95159; KB03 100 uM
T8 construct: Cells were resuspended in cold PBS on ice and sonicated with a probe sonicator to achieve lysis; endogenous in cells
T8 sequence (O95159 whole entry): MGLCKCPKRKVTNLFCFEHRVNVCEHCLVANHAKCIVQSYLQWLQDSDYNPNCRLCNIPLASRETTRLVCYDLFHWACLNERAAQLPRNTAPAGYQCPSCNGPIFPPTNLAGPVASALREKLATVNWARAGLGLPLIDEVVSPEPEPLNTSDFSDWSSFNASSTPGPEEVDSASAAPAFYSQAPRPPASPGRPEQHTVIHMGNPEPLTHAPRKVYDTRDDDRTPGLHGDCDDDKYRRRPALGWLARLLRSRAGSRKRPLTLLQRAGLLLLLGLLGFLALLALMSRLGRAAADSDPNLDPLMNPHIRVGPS
Method in brief: as §1

[9] = molecular target: T9, cysteine residue illustrated in Table 1A or Table 2A (Homo sapiens, UniProt Q9H0M0); details: UniProt Q9H0M0; KB03 100 uM
T9 construct: Cells were resuspended in cold PBS on ice and sonicated with a probe sonicator to achieve lysis; endogenous in cells
T9 sequence (Q9H0M0 whole entry): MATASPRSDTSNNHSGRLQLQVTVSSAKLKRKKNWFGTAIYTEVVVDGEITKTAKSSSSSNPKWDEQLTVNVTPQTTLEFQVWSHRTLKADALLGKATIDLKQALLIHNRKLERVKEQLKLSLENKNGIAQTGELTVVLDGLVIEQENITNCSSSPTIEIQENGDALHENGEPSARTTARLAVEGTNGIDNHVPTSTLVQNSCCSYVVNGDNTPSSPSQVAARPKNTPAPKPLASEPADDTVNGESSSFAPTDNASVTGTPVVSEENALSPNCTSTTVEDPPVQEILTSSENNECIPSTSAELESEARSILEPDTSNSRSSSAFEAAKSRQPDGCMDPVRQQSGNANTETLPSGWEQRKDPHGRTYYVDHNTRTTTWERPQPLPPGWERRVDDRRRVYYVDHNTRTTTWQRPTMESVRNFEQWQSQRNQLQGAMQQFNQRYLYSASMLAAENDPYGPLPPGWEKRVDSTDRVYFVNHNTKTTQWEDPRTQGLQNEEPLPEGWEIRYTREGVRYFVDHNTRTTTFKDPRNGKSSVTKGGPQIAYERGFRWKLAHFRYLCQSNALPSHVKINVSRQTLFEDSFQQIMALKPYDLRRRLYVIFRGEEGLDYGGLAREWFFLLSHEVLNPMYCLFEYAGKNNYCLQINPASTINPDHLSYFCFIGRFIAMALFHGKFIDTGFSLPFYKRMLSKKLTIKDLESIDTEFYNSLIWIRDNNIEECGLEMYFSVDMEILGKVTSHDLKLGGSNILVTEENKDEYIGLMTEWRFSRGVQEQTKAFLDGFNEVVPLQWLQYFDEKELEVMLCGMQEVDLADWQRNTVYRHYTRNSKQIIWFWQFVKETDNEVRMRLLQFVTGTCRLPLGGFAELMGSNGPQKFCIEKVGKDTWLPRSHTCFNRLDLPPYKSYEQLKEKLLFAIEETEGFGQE
Method in brief: as §1

[10] = molecular target: T10, cysteine residue illustrated in Table 1A or Table 2A (Homo sapiens, UniProt P10074); details: UniProt P10074; KB03 100 uM
T10 construct: Cells were resuspended in cold PBS on ice and sonicated with a probe sonicator to achieve lysis; endogenous in cells
T10 sequence (P10074 whole entry): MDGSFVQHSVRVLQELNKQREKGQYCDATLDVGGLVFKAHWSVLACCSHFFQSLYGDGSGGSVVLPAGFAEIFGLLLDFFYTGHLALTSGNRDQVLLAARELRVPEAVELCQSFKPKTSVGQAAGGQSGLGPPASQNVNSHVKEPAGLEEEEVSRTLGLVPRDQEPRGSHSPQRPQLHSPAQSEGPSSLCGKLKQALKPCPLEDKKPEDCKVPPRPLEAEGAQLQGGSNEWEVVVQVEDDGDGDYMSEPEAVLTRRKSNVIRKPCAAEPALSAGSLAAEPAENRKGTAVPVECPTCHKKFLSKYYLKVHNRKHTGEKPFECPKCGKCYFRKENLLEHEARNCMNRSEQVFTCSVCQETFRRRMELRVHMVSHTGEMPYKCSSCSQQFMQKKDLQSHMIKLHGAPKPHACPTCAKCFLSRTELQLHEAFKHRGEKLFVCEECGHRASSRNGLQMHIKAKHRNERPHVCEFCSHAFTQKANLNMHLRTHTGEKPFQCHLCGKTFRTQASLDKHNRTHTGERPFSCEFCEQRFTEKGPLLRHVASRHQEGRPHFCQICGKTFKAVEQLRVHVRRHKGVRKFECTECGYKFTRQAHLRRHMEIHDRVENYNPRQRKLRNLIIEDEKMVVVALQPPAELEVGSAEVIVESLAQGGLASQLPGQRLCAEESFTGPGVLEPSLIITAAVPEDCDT
Method in brief: as §1

[11] = molecular target: T11, cysteine residue illustrated in Table 1A or Table 2A (Homo sapiens, UniProt Q5T4S7); details: UniProt Q5T4S7; KB03 500 uM
T11 construct: Cells were resuspended in cold PBS on ice and sonicated with a probe sonicator to achieve lysis; endogenous in cells
Method in brief: as §1

[12] = molecular target: T12, cysteine residue illustrated in Table 1A or Table 2A (Homo sapiens, UniProt Q9NZJ0); details: UniProt Q9NZJ0; 500 uM
T12 construct: Cells were resuspended in cold PBS on ice and sonicated with a probe sonicator to achieve lysis; endogenous in cells
Method in brief: as §1

[13] = molecular target: T13, cysteine residue illustrated in Table 1A or Table 2A (Homo sapiens, UniProt Q15386); details: UniProt Q15386; KB03 100 uM
T13 construct: Cells were resuspended in cold PBS on ice and sonicated with a probe sonicator to achieve lysis; endogenous in cells
Method in brief: as §1

KB05_100 uM_percent_inhibition [1]: 49% | KB05_100 uM_percent_inhibition ([2]; 100 uM): 5% | KB05_500 uM_percent_inhibition ([2]; 500 uM): 51% | KB05_100 uM_percent_inhibition [3]: 17% | KB05_100 uM_percent_inhibition [4]: 13% | KB05_100 uM_percent_inhibition [5]: 10% | KB05_100 uM_percent_inhibition [6]: 41%
SMILES: C=CC(=O)N(c1ccccc1)c1ccc(Br)cc1 [KB05]

SMILES: COc1ccc2c(c1)CCCN2C(=O)CCl [KB02]
KB02_100 uM_percent_inhibition [7]: 5%

SMILES: O=C(CCl)Nc1cc(C(F)(F)F)cc(C(F)(F)F)c1 [KBO3]
KB03_100 uM_percent_inhibition [8]: 15% | KB03_100 uM_percent_inhibition [9]: 61% | KB03_100 uM_percent_inhibition [10]: 24% | KB03_500 uM_percent_inhibition [11]: 69% | KB03_500 uM_percent_inhibition [12]: 69% | KB03_100 uM_percent_inhibition [13]: 16%
